Experiment in all cases: NCI anticancer screen, dose series, 48 h
In assay [1] the test system is 786-0 renal.
Assay [2] deals with LOX IMVI melanoma.
Assay [3] relates to M14 melanoma.
Assay [4] deals with PC-3 prostate.
Assay [5] relates to RXF 393 renal.
Assay [6] relates to SF-268 CNS.
Assay [7] concerns SF-295 CNS.
Assay [8] has as its system SNB-19 CNS.
Assay [9] concerns SR leukemia.
Assay [10] has as its system UO-31 renal.

Values joined by “and” are separate entries in the source; they are usually repeats but may differ in a detail not shown here. Equal entries are not always repeated.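 The compound was tested at five concentrations on cells cultured in 96-well plates, with a 48-hour exposure period. Abbreviation: GI50, concentration required for 50% inhibition of growth. TGI marks complete inhibition of growth.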 Where only a bound is given, the exact number is not on record here.

Take `O=C(NOCCO)c1cc(CN2OCCCC2=O)c(F)c(F)c1Nc1ccc(I)cc1F`: the GI50 in assay [1] is 15.7 µM and > 10 µM; in assay [2], 0.112 µM and 0.164 µM; in assay [3], < 0.01 µM and 0.00226 µM; in assay [4] it was 31.7 µM and > 10 µM; in assay [5], 0.521 µM and 0.336 µM; in [6], 22.6 µM and > 10 µM. The GI50 in [7] was 16.9 µM and > 10 µM; in [8], 3.68 µM and 1.64 µM; in [9], 19.9 µM and > 10 µM; in assay [10], 0.17 µM and 0.164 µM. For the same molecule, the TGI in assay [1] was over 92.2 µM; in assay [2], 12.2 µM and > 10 µM; in [3], 0.0237 µM; in assay [4], over 84.3 µM; in assay [5], 25.9 µM and > 10 µM; in assay [6] it was over 100 µM. In addition, the TGI is over 75.4 µM in assay [7]; over 100 µM in assay [8]; over 100 µM in assay [9]; 13.1 µM and > 10 µM in assay [10].
As to `COc1cc(-c2cc(=O)c3c(O)c(OC)c(OC)c(OC)c3o2)cc(OC)c1OC`, the TGI was 15.6 µM in assay [1]; over 100 µM in [2]; over 100 µM in [3]; over 100 µM in assay [4]; 33.2 µM in [5]; over 100 µM in [6]. Besides, the TGI was over 100 µM in assay [7], over 78.7 µM in assay [8], over 100 µM in assay [9] and over 100 µM in assay [10].
For `Cc1c(Cl)c(C)c(Cc2c(C)c(Cl)c(C)c(Cl)c2O)c(O)c1Cl`, the GI50 was 2.98 µM in [1]; 3.18 µM in [2]; 3.53 µM in [3]; 1.99 µM in assay [4]; 2 µM in assay [5]; 3.4 µM in assay [6]. In addition, the GI50 is 2.05 µM in assay [7], 3.15 µM in [8], 3.4 µM in [9] and 3.09 µM in assay [10]. For the same molecule, the TGI in assay [1] came out at 9.84 µM; in assay [2], 10.5 µM; in [3] it was 14.4 µM; in [4], 11.8 µM; in assay [5] it was 6.89 µM; in [6], 15.8 µM. The TGI in assay [7] is 5.08 µM; in assay [8], 13.8 µM; in assay [9], 12.4 µM; in assay [10], 11.6 µM.
With `C=CC(C)(O)CC/C=C(\CO)C(=O)OC1C(C)OC(O[C@](C)(C=C)CC/C=C(\CO)C(=O)O[C@H]2C[C@@]3(C(=O)OC4OC(CO)C(O)C(O)C4OC4OC(C)C(OC5OC(CO)C(O)C5O)C(OC5OC(CO)C(O)C(O)C5O)C4O)C(CC2(C)C)C2=CCC4[C@@]5(C)CC[C@H](OC6OC(COC7OC(C)C(O)C(O)C7OC7OCC(O)C(O)C7O)C(O)C(O)C6NC(C)=O)C(C)(C)C5CC[C@@]4(C)[C@]2(C)C[C@H]3O)C(O)C1O` (some centres undefined), the GI50 in [1] was 0.155 µM; in [2], 0.162 µM; in assay [3], 0.62 µM; in [4] it was 0.078 µM; in assay [5], 0.754 µM; in assay [6], 0.174 µM. Moreover, the GI50 is 0.083 µM in assay [7], 0.107 µM in assay [8], 1.59 µM in [9] and 0.234 µM in assay [10]. Besides, the TGI in assay [1] came out at 0.668 µM; in assay [2], 0.82 µM; in assay [3], 2.29 µM; in [4], 1.97 µM; in assay [5] it was 4.03 µM; in assay [6], 0.893 µM. Besides, the TGI is 0.312 µM in assay [7], 1.12 µM in assay [8], 15.1 µM in [9] and 0.966 µM in [10].
In the case of `O=C(C=C=Nc1ccccc1)C(=O)N=C=Cc1ccccc1`, the GI50 in assay [1] was 1.75 µM; in [2], 1.93 µM; in assay [3], 2.16 µM; in [4] it was 2.89 µM; in assay [6], 3.43 µM; in assay [7] it was 14.5 µM. In addition, the GI50 in [8] is 31.6 µM; in assay [9], 0.298 µM; in assay [10], 1.63 µM. In addition, the TGI worked out at 3.9 µM in assay [1]; 4.48 µM in assay [2]; 6.46 µM in assay [3]; 8.91 µM in assay [4]; 0.497 µM in [5]; 12.1 µM in [6]. Moreover, the TGI is 40.9 µM in assay [7], over 60.7 µM in assay [8], over 100 µM in assay [9] and 3.82 µM in [10].
Consider `Nc1nc(N)c2c(n1)NC(c1sc(Cl)nc1Cl)CC(c1ccc3c(c1)OCO3)=N2` (centres undefined), for which the GI50 is 5.43 µM in assay [1]; 7.02 µM in assay [2]; 2.01 µM in assay [3]; 5.15 µM in [4]; 1.4 µM in [5]; 9.84 µM in assay [6]. The GI50 in [7] was 2.21 µM; in assay [8], 4.83 µM; in [9], 1.9 µM; in assay [10], 4.52 µM. Besides, the TGI in assay [1] is 24.8 µM; in [2], 25.5 µM; in [3] it was 13.7 µM; in assay [4], 32.4 µM; in assay [5], 6.61 µM; in assay [6], 30.2 µM. Besides, the TGI was 12.3 µM in [7], 48.2 µM in assay [8], 16.6 µM in [9] and 24.5 µM in assay [10].
Consider H-QIYKKYRTWYRKAWKVLGKV-NH2, for which the GI50 was 3.04 µM in [1]; 23.7 µM in assay [2]; 3.06 µM in [3]; 3.82 µM in assay [4]; 4.55 µM in assay [5]; 3.99 µM in [6]. Further, the GI50 is 4.72 µM in [7], 17.5 µM in assay [8], 3.58 µM in [9] and 19.2 µM in assay [10]. Besides, the TGI in assay [1] was 16.8 µM; in [2], over 100 µM; in [3], 14.1 µM; in assay [4] it was 20 µM; in assay [5] it was 27.4 µM; in [6] it was 30.5 µM. Further, the TGI in assay [7] is 23.9 µM; in assay [8] it was 68.6 µM; in assay [9], over 100 µM; in [10], 39.5 µM.
Take `CC1=C(N2CC2)C(=O)c2ccccc2C1=O`: the TGI in [1] was found to be 3.47 µM; in assay [2], 4.98 µM; in assay [3], 5.03 µM; in assay [4], 3.87 µM; in assay [5] it was 2.64 µM; in assay [6], 5.14 µM. The TGI in assay [7] came out at 2.48 µM; in [8], 6.27 µM; in assay [9], 0.279 µM; in assay [10], 10.6 µM.
As to `O=C(/C=C/c1ccco1)c1ccc(Nc2nc(Nc3ccc(F)cc3)nc(Nc3ccc(F)cc3)n2)cc1`, the GI50 is 48.8 µM in assay [1]; 17.6 µM in assay [2]; 12.8 µM in [3]; 6.83 µM in [4]; 41.4 µM in [5]; 7.49 µM in [6]. For the same molecule, the GI50 in assay [7] was 23.8 µM; in assay [8] it was 20.5 µM; in assay [9], 2.37 µM; in [10] it was 14.7 µM. In addition, the TGI in assay [1] was over 100 µM; in assay [2], 45.3 µM; in assay [3] it was 30.5 µM; in assay [4], 21.9 µM; in assay [5], over 100 µM; in assay [6], 30.8 µM. The TGI in [7] was found to be 48.9 µM; in [8] it was 70.8 µM; in assay [9] it was 5.84 µM; in [10], 37.2 µM.
With `COc1cc(/C=N/NC(=O)c2ccccc2Nc2cccc(C(F)(F)F)c2)cc(OC)c1OC`, the GI50 in [1] is 3.22 µM; in assay [2] it was 4.55 µM; in assay [3] it was 3.35 µM; in assay [4], 3.34 µM; in [5], 2.35 µM; in assay [6], 2.05 µM. The GI50 was 0.471 µM in [7], 3.85 µM in assay [8], 1.3 µM in [9] and 6.11 µM in assay [10]. Further, the TGI was 11.6 µM in [1]; 15.4 µM in assay [2]; 14.4 µM in assay [3]; over 28.1 µM in assay [4]; 5.87 µM in assay [5]; 7.99 µM in assay [6]. For the same molecule, the TGI in assay [7] was found to be 3.04 µM; in [8], 18.5 µM; in [9], 4.16 µM; in [10], 21.5 µM.
For `NC(=O)c1ccc(N(C(N)=O)c2c(F)cccc2F)nc1-c1ccc(F)cc1F`, the GI50 in [1], in [2], in assay [3], in assay [4], in [5] and in assay [6] was over 100 µM in each case. Besides, the GI50 in assay [7], in [8], in assay [9] and in assay [10] was over 100 µM each time. Further, the TGI in [1], in assay [2], in assay [3], in [4], in assay [5] and in assay [6] was over 100 µM in each case. The TGI in [7], in assay [8], in assay [9] and in [10] was over 100 µM in each case.
On to `O=C(Nc1cccc(C(F)(F)F)c1)c1cc2ccccc2cc1O`, for which the GI50 in assay [1] is 2.08 µM; in assay [2], 1.92 µM; in assay [3], 3.26 µM; in assay [4] it was 1.93 µM; in assay [5], 3.3 µM; in assay [6], 2.7 µM. For the same molecule, the GI50 in assay [7] was 2.86 µM; in [8] it was 1.75 µM; in assay [9] it was 0.533 µM; in [10] it was 1.12 µM. The TGI in [1] is 35.5 µM; in assay [2] it was 14.3 µM; in [3], 48.7 µM; in [4] it was over 25.6 µM; in assay [5], over 30.4 µM; in [6], over 100 µM. In addition, the TGI is 8.68 µM in assay [7], over 100 µM in assay [8], 12.3 µM in [9] and over 22.1 µM in assay [10].
`Cc1cc2nc(-c3c(F)cccc3Cl)n(Cc3c(F)cccc3Cl)c2cc1C`: the GI50 is 15.8 µM in assay [1]; 13.5 µM in [2]; 11.5 µM in [3]; 3.44 µM in assay [4]; 11.8 µM in assay [5]; 11 µM in assay [6]. Also, the GI50 in [7] is 6.92 µM; in assay [8], 25.5 µM; in assay [9], 17.5 µM; in assay [10] it was 13.2 µM. Further, the TGI came out at 31.3 µM in assay [1]; 30.2 µM in [2]; 26.7 µM in assay [3]; 12.6 µM in assay [4]; 28.4 µM in assay [5]; 31.7 µM in assay [6]. Moreover, the TGI in assay [7] was 33.3 µM; in [8], 93.7 µM; in assay [9], over 100 µM; in assay [10], 54.5 µM.
Turning to `N#C/C(=C\c1ccc2[nH]ccc2c1)C(=O)c1ccc(O)c(O)c1`, the TGI in assay [1], in assay [2], in assay [3], in assay [4], in assay [5] and in assay [6] was over 100 µM each time. Besides, the TGI in assay [7], in assay [8], in assay [9] and in [10] was over 100 µM each time.
For `O=C(/C=C/c1cccc2ccccc12)Nc1ncc(Cc2ccccc2)s1`, the GI50 in assay [1] is 0.704 µM; in assay [2], 0.445 µM; in [3] it was 0.649 µM; in assay [4], 1.01 µM; in assay [5], 0.436 µM; in [6], 2.61 µM. Also, the GI50 in assay [7] was 0.443 µM; in assay [8], 0.971 µM; in assay [9], 0.866 µM; in [10], 1.39 µM. In addition, the TGI in assay [1] was 3.27 µM; in assay [2], 11 µM; in assay [3], 3.79 µM; in assay [4] it was over 100 µM; in assay [5], 1.66 µM; in assay [6], over 100 µM. For the same molecule, the TGI in assay [7] was 2.33 µM; in [8], over 100 µM; in assay [9] it was over 100 µM; in assay [10] it was 3.98 µM.
For `CNC(c1ccncc1)C(NC)c1ccncc1` (centres undefined), the TGI in assay [1], in [2], in assay [3], in assay [4], in [5] and in [6] was over 100 µM each time. Further, the TGI in [7], in assay [8], in assay [9] and in assay [10] was over 100 µM in each case.
